Entries after “also recorded” stand apart in the source; their conditions may differ. Where two headings read alike, the source gives them in different places.
How the values were obtained:
[1] = system: carbonic anhydrase-III (CAIII); assay: Western blot of carbonic anhydrase III in liver of HFD-fed mice; details: HFD fed-DIO mice; 10mg/kg for 12 days; vs sham
[2] = Body weight changes in HFD-fed mice; type: in vivo, mouse
Experimental: We next measured body weight changes in HFD-fed animals prior to treatment with niclosamide or phenylbenzamide derivatives and after 12 days, prior to sacrifice. During this time, all animals (including sham) lost some weight.
20-week old animals were treated IP with 500199 at 10 or 25mg/kg by IP over a time-course of 9 days. At day 0, 3, 6 and 9 animals were weighed and tissue samples were collected for standard histological scoring of hepatic steatosis and automated quantitative histomorphometric scoring.

p-AMPK Thr-172 = assay: Western blot of p-AMPK Thr-172 in liver of HFD-fed mice; details: HFD fed-DIO mice; 10mg/kg for 12 days; vs sham
[3] = system: fatty acid synthase (FAS); assay: Western blot of fatty acid synthase in liver of HFD-fed mice; details: HFD fed-DIO mice; 10mg/kg for 12 days; vs sham
PH5CH8 liver cells = assay: High-throughput hepatic de novo lipogenesis (DNL) assay, high content imaging of steatotic phenotype; type: cell-based, human; details: for IC50: Homo sapiens
[4] = system: phospho-AMPK Thr-172 (p-AMPK); assay: Western blot of phospho-AMPK Thr-172 in HEK293T cells; type: cell-based, human; details: for phosphorylation of AMPK (p-AMPK Thr-172) by Western blot: 1 and 10μM, negatives re-screened at 5 and 20 μM, 3 hours
Experimental: AMPK is a metabolic sensor that maintains cellular energy supply. As validation of these changes in lipid metabolism and cellular respiration we evaluated phospho-AMPK Thr-172 (p-AMPK) levels by Western blot in HEK293 cells treated with the phenylbenzamide derivatives. Compounds were screened at 1 and 10μM using the known uncouplers niclosamide and FCCP as positive controls (Fig 4A). […] We concluded that compounds that had little effect on oxygen consumption rates also had little effect on phosphorylation of AMPK.

[5] = system: phospho-S6 ribosomal protein; assay: Western blot of phospho-S6 ribosomal protein in HEK293T cells; type: cell-based, human
[6] = system: HEK293 cells stably transduced with the human OCT3 transporter; assay: Cellular oxygen consumption rate (OCR), MitoXpress Xtra; type: cell-based; details: HEK293 cells expressing human OCT3; for change in respiration / oxygen consumption rate (OCR): compared to DMSO control, 2 hours; for concentration dependence of OCR change: four concentrations
Experimental: Oxygen consumption rate experiments were performed by ZenBio, Inc (RTP, NC). HEK293 cells stably transduced with the human OCT3 transporter were plated in black-walled microclear plates (Greiner-BioOne) at 60,000 cells per well in growth medium. Cells were incubated overnight to allow attachment before growth medium was removed and replaced with 150μL of assay medium containing compound dilutions. Four concentrations of each compound were prepared and transferred to the empty wells. Control wells contained assay medium only or assay medium containing […] (FCCP) at 1μM. Ten μL of MitoXpress Xtra reagent was added to each test well and 100μL of pre-warmed mineral oil was overlaid in each well to create a seal. The plates were immediately read on a FLUOstar Omega (BMG) using dual read Time Resolved Fluorescence (TR-F) for 2 hours, with measurements taken every 2 minutes using 340nm and 650nm as excitation and emission wavelengths respectively. For lifetime analysis, two measurements per well were taken: 1) delay of 30μs, with a window of 30μs; and 2) delay of 70μs with a window of 30μs. Background TRF values were subtracted from all readings. A ratiometric analysis was performed to determine changes in the Lifetime fluorescence signal: Lifetime (μs)[T] = (D2-D1)/ln(W1/W2), where D is delay; W is fluorescence window value at each time point. Lifetime slopes were calculated using each Lifetime measurement over time. Data are presented as mean ± standard error (SE). The differences between the control (DMSO) and compound treated wells were analyzed using the Student’s t-test. A value of p≤0.05 was considered statistically significant. […]

[7] = system: Phosphorylated AMPK (Thr-172); assay: High-throughput phosphorylated AMPK (Thr-172) TR-FRET assay in HepG2 cells; type: cell-based, human; details: HepG2 TR-FRET dose response between 0.625 and 10 μM, 4 hours; also Western blot
Experimental: Phosphorylated AMPK (Thr-172) TR-FRET Assay Kit was purchased from CisBio (Bedford MA). HepG2 [HB-8065] cells were trypsinized, harvested and counted using Countess II FL automated cell counter (Thermo Fisher Scientific). Cells were then seeded in Poly-D-Lysine coated 96-well black optical plates at a concentration of 10,000 cells per well in 50μL growth medium. After 24-hours, the media was removed and replaced with 50μL of fresh growth media containing compounds. Five concentrations of each compound were prepared, ranging from 10 to 0.625 μM and applied to columns 2–11 of the cell plate. Control wells contained DMSO (column 1-minimum response control) or 500199 (column 12-maximum response control). The final DMSO concentration was 0.45%. Cells were cultured for 4 hours before cells were lysed in 50μL of lysis buffer for 30 minutes at room temperature according to assays protocol. Following lysis, 16μL of lysate was transferred to white 384 well small volume assay plate and 4μL of antibody dyes were added per assay protocol.
Following overnight incubation, quantitation was performed on a PHERAstar (BMG), using the HTRF protocol with an excitation wavelength of 337nm and emission wavelengths of 665nm and 620nm. The ratio between emission spectra (665/620) was assessed for each well individually and averaged for triplicate samples. Data are presented as mean ratio ± SE. The differences between the control (DMSO) and the compound treated wells were analyzed using two-way ANOVA and Dunnett’s post hoc test. A value of p<0.05 was considered to be significant.
Fig 5 Validation of AMPK pathway activation by phenylbenzamide derivatives in HepG2 cells. A) Cells were seeded at 10,000 cells per well 24 hours prior to treating cells with indicated concentration of compound or DMSO (CTL) for 4 hours. 16μL of cell lysate was incubated with HTRF phospho-AMPK detection reagents and fluorescence emission read at 665nm and 620nm using a PHERAstar platereader. The mean and standard deviation of the HTRF Ratio from three replicate wells is shown. The unstimulated (DMSO) and positive controls lysates are shown in green and red respectively.

[8] = Metabolic stability in mouse liver microsomes; type: in vitro ADME; details: 60 min
Experimental: (§1) Three experiments were performed with 1) 0.5mg/ml microsomes and 1mM NADPH, 2) 0.5mg/ml microsomes without NADPH and 3) 0.5mg/ml heat inactivated microsomes without NADPH in 100mM phosphate buffer, containing 5mM magnesium chloride. […] At the indicated time points, 50μl samples were removed and stopped by addition of 4 volumes of cold acetonitrile with internal standards, 100nM alprazolam, 200nM labetalol and 2μM ketoprofen. The samples were centrifuged at 3,220 g for 40 minutes and aliquots of 100μl were subsequently diluted with 100μl of ultra-pure water and analyzed by LC/MS/MS using a (Shimadzu corporation) LC system coupled to a Shimadzu Triple Quad 5500 mass spectrometer with an ESI interface. The LC system used a Waters XSelect HSS T3 C18, 2.5μm, 2.1 x 50 mm column eluted with one of two methods using mobile phases A (water, 0.1% formic acid) and B (acetonitrile, 0.1% formic acid). […] The Shimadzu Triple Quad 5500 MS was operated with the following parameters: Ion source: Turbo spray; Ionization mode: ESI; Scan type: MRM; Collision gas: 10 L/min; Curtain gas: 30 L/min; Nebulize gas: 50 L/min; Auxiliary gas: 50 L/min; Temperature: 500°C; Ionspray voltage: +5500 V (positive MRM). All experiments were performed in duplicate. Data were analyzed using Microsoft excel, and peak areas were determined from extracted ion chromatograms.

[9] = Metabolic stability in human liver microsomes; type: in vitro ADME
Experimental: as §1

[10] = PH5CH8 liver cells, 10-point dose response between 1μM and 1.9nM, read-out: IC50 (uM), inhibition of steatotic phenotype in DNL assay
[11] = S1 Table, SAR for N-Substituted Phenylbenzamides, read-out: IC50
[12] = S1 Table, SAR for N-Substituted Phenylbenzamides
[13] = S1 Table. SAR for N-Substituted Phenylbenzamides, read-out: IC50
[14] = S1 Table. SAR for N-Substituted Phenylbenzamides
[15] = 0.5mg/ml microsomes and 1mM NADPH
[16] = 0.5mg/ml microsomes without NADPH
[17] = heat inactivated microsomes without NADPH

Row | Structure (SMILES) | IC50 (PH5CH8 liver cells; [10]) | IC50 (PH5CH8 liver cells; [11]) | Active/Inactive (PH5CH8 liver cells; [12]) | phosphorylation of AMPK (p-AMPK Thr-172) by Western blot [4] | change in respiration / oxygen consumption rate (OCR) [6] | concentration dependence of OCR change [6] | phosphorylation of AMPK (Figs 5 and 4D) [7] | IC50 (PH5CH8 liver cells; [13]) | Active/Inactive (PH5CH8 liver cells; [14]) | further results
1 | COC(=O)c1ccc(NC(=O)c2cc(C(C)(C)C)ccc2O)c(Cl)c1 [Compound 500199, Methyl 4-[(5-tert-butyl-2-hydroxybenzene)amido]-3-chlorobenzoate] | 0.06 µM | 0.066 µM | Active | stimulated phosphorylation of AMPK | significant changes | dose dependent increase in OCR | – | – | – | CAIII protein levels in liver [1]: reduced; body weight change vs sham ([2]; 10mg/kg I.P daily for 12 days): lost significantly more weight; body weight vs sham ([2]; 10 or 25mg/kg IP over 9 days): no statistically significant difference; phosphorylation of AMPK at Thr-172 in liver (p-AMPK Thr-172): stimulated phosphorylation of AMPK at Thr-172; FAS protein levels in liver [3]: reduced; concentration at which phosphorylation of AMPK peaks ([4]; Western blot): 5 µM; phospho-S6 ribosomal protein [5]: inversely regulated
2 | O=C(Nc1ccc(Br)cc1Cl)c1cc(Cl)ccc1O [Compound 500832, N-(4-Bromo-2-chlorophenyl)-5-chloro-2-hydroxybenzamide] | 0.08 µM | – | – | – | significant changes | only significantly elevated at 1μM | stimulated phosphorylation of AMPK | 0.0203 µM | Active | –
3 | N#Cc1ccc(NC(=O)c2cc(Cl)ccc2O)c(Cl)c1 [Compound 500833, 5-Chloro-N-(2-chloro-4-cyanophenyl)-2-hydroxybenzamide] | 0.04 µM | – | – | – | significant changes | only significantly elevated at 1μM | stimulated phosphorylation of AMPK | 0.043 µM | Active | –
4 | COC(=O)c1ccc(NC(=O)c2cccc(C(C)(C)C)c2O)c(Cl)c1 [Compound 600489, Methyl 4-(3-tert-butyl-2-hydroxybenzamido)-3-chlorobenzoate] | 0.01 µM | 0.014 µM | Active | stimulated phosphorylation of AMPK only at the highest concentration | no change in respiration; also recorded: no effect on oxygen consumption rate | – | – | – | – | Remaining Percentage of 60 min (%), Mouse, Tested Sample [8, 15]: 2.7%; Remaining Percentage of 60 min (%), Mouse, Negative Control [8, 16]: 4.1%; Remaining Percentage of 60 min (%), Mouse, Heat-inactivated Control [8, 17]: 57.6%; Remaining Percentage of 60 min (%), Human, Tested Sample [9, 15]: 3.1%; Remaining Percentage of 60 min (%), Human, Negative Control [9, 16]: 3.8%; microsomal stability ([9]; HLM and MLM, 60 min): completely degraded; Remaining Percentage of 60 min (%), Human, Heat-inactivated Control [9, 17]: 66.6%
5 | COC(=O)c1ccc(NC(=O)c2cc(C(F)(F)F)ccc2O)c(Br)c1 [Compound 600653, Methyl 4-(2-hydroxy-5-[trifluoromethyl]benzamido)-3-bromobenzoate] | 0.27 µM | 0.267 µM | Active | – | significant changes | dose dependent increase in OCR | stimulated phosphorylation of AMPK | – | – | –
6 | COC(=O)c1ccc(NC(=O)c2cc(C(F)(F)F)ccc2O)c(C)c1 [Compound 600655, Methyl 4-(2-hydroxy-5-[trifluoromethyl]benzamido)-3-methylbenzoate] | 0.03 µM | 0.00025 µM | Active | – | significant changes | dose dependent increase in OCR | stimulated phosphorylation of AMPK | – | – | –

From PMC6201879, “N-substituted phenylbenzamides of the niclosamide chemotype attenuate obesity related changes in high fat diet fed mice” (PLoS ONE, 2018)
